Test results reported in the supplement of paper PMC10307832.

Legend:
Assay in all cases: relative viability (nuclei count vs DMSO), 5 days (fraction); higher = more cells survive
Alisertib + Vorinostat = compound: COc1cc(Nc2ncc3c(n2)-c2ccc(Cl)cc2C(c2c(F)cccc2OC)=NC3)ccc1C(=O)O [Alisertib] + O=C(CCCCCCC(=O)Nc1ccccc1)NO [Vorinostat] (partner 1 µM)
Outline: (§1)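 Each reported value is a median over duplicate plates. It expresses relative viability: treated-well nuclei count divided by vehicle-well nuclei count. Lung cancer cell lines in 1536-well plates were dosed by pin tool a day after seeding, alone with one drug or with a fixed anchor-drug dose plus five library-drug doses (not always all listed) in √10 steps, and nuclei were counted after 5 days.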

Alisertib + Dasatinib = compound: COc1cc(Nc2ncc3c(n2)-c2ccc(Cl)cc2C(c2c(F)cccc2OC)=NC3)ccc1C(=O)O [Alisertib] + Cc1nc(Nc2ncc(C(=O)Nc3c(C)cccc3Cl)s2)cc(N2CCN(CCO)CC2)n1 [Dasatinib] (partner 0.075 µM)
Outline: as §1

Alisertib + Pictilisib = compound: COc1cc(Nc2ncc3c(n2)-c2ccc(Cl)cc2C(c2c(F)cccc2OC)=NC3)ccc1C(=O)O [Alisertib] + CS(=O)(=O)N1CCN(Cc2cc3nc(-c4cccc5[nH]ncc45)nc(N4CCOCC4)c3s2)CC1 [Pictilisib] (partner 1 µM)
Outline: as §1

Alisertib + Crizotinib = compound: COc1cc(Nc2ncc3c(n2)-c2ccc(Cl)cc2C(c2c(F)cccc2OC)=NC3)ccc1C(=O)O [Alisertib] + C[C@@H](Oc1cc(-c2cnn(C3CCNCC3)c2)cnc1N)c1c(Cl)ccc(F)c1Cl [Crizotinib] (partner 1 µM)
Outline: as §1

Cell Line | relative viability (Alisertib + Vorinostat; first compound 0.005 µM) | relative viability (Alisertib + Vorinostat; first compound 0.01581 µM) | relative viability (Alisertib + Vorinostat; first compound 0.05 µM) | relative viability (Alisertib + Vorinostat; first compound 0.1581 µM) | relative viability (Alisertib + Vorinostat; first compound 0.5 µM) | relative viability (Alisertib + Dasatinib; first compound 0.005 µM) | relative viability (Alisertib + Dasatinib; first compound 0.01581 µM) | relative viability (Alisertib + Dasatinib; first compound 0.05 µM) | relative viability (Alisertib + Dasatinib; first compound 0.1581 µM) | relative viability (Alisertib + Dasatinib; first compound 0.5 µM) | relative viability (Alisertib + Pictilisib; first compound 0.005 µM) | relative viability (Alisertib + Pictilisib; first compound 0.01581 µM) | relative viability (Alisertib + Pictilisib; first compound 0.05 µM) | relative viability (Alisertib + Pictilisib; first compound 0.1581 µM) | relative viability (Alisertib + Pictilisib; first compound 0.5 µM) | relative viability (Alisertib + Crizotinib; first compound 0.005 µM) | relative viability (Alisertib + Crizotinib; first compound 0.01581 µM) | relative viability (Alisertib + Crizotinib; first compound 0.05 µM) | relative viability (Alisertib + Crizotinib; first compound 0.1581 µM) | relative viability (Alisertib + Crizotinib; first compound 0.5 µM)
LXF-289 | 0.587 | 0.493 | 0.189 | 0.139 | 0.188 | 0.206 | 0.256 | 0.0522 | 0.0513 | 0.0398 | 0.701 | 0.565 | 0.576 | 0.103 | 0.0904 | 0.762 | 0.443 | 0.204 | 0.186 | 0.178
NCI-H23 | 0.456 | 0.24 | 0.132 | 0.153 | 0.149 | 0.67 | 0.661 | 0.301 | 0.173 | 0.198 | 0.422 | 0.302 | 0.18 | 0.185 | 0.147 | 0.427 | 0.367 | 0.202 | 0.179 | 0.187
NCI-H322M | 0.806 | 0.864 | 0.772 | 0.502 | 0.514 | 0.233 | 0.23 | 0.26 | 0.184 | 0.206 | 0.497 | 0.477 | 0.451 | 0.321 | 0.311 | 0.809 | 0.777 | 0.431 | 0.498 | 0.313
NCI-H358 | 0.551 | 0.449 | 0.105 | 0.1 | 0.0875 | 0.168 | 0.176 | 0.114 | 0.0896 | 0.0837 | 0.269 | 0.327 | 0.217 | 0.154 | 0.14 | 0.632 | 0.358 | 0.193 | 0.188 | 0.186
